The procedure of this data set:
Then, SH556 (phenyl-modified silicone oil) was added to this liquid crystal composition to prepare the liquid crystal composition of the present invention.
(§1) The solubilized concentration (saturated concentration of solubilization) of oil was measured by sample appearance, for example, cloudiness or phase separation.
Then, a mixed oil of SH556 and squalane or a mixed oil of KF50-100CS and squalane was added to the mixed surfactant aqueous solution, thereby preparing the liquid crystal compositions of the present invention. The weight ratio of a phenyl-modified silicone oil (SH556 or KF50-100CS) and squalane is 1:1 in each mixed oil. Moreover, as a comparative example, squalane alone was added to the mixed surfactant aqueous solution to prepare a liquid crystal composition for the comparative example.
The solubilized concentration of oil (mixed oil or squalane) in each liquid crystal composition was evaluated. The solubilized concentration (saturated concentration of solubilization) of oil was measured by sample appearance, for example, cloudiness or phase separation.
Then, a mixed oil of SH556 and squalane was added to each mixed surfactant aqueous solution, thereby preparing the liquid crystal compositions of the present invention. The weight ratio of SH556 and squalane is 1:1 in the mixed oil. Moreover, as comparative examples, squalane alone was added to the mixed surfactant aqueous solutions to prepare liquid crystal compositions for the comparative examples.
The solubilized concentration of oil (a mixed oil of SH556 and squalane or squalane) in each liquid crystal composition was evaluated. The solubilized concentration (saturated concentration of solubilization) of oil was measured by sample appearance, for example, cloudiness or phase separation.
Then, a mixed oil of SH556 and α-lipoic acid or a mixed oil of SH556 and oleic acid was added to the mixed surfactant aqueous solution, thereby preparing the liquid crystal compositions of the present invention. The weight ratio of SH556 and a fatty acid (α-lipoic acid or oleic acid) is 1:1 in each mixed oil.
The solubilized concentration of oil (a mixed oil of SH556 and α-lipoic acid, a mixed oil of SH556 and oleic acid, α-lipoic acid or oleic acid) in each liquid crystal composition was evaluated. The solubilized concentration (saturated concentration of solubilization) of oil was measured by sample appearance, for example, cloudiness or phase separation.
as §1

In the case of phenyl trimethicone [SH556], the “effect of enhancing solubility of squalane” value is listed as “showed the effect of enhancing solubility of squalane” and the “solubilized concentration of oil” value was “at least 25 % by weight”. Consider `CCCCCCCCCCCCCCCCOC(=O)CCCCC(C)C` [cetyl isooctanoate], for which the “solubilized concentration of cetyl isooctanoate” value is listed as “up to 12.96 % by weight”. For the compound `CCCCCCCC/C=C\CCCCCCCC(=O)O` [oleic acid], the “solubilized concentration of oleic acid” value was “up to 11.7 % by weight”. Consider `CC(C)CCCC(C)CCCC(C)CCCCC(C)CCCC(C)CCCC(C)C` (stereo not drawn) [squalane], for which the “solubilized concentration of oil” value is given as “could not be dissolved” and the “solubilized concentration of squalane” value was “up to 3.125 % by weight”.
